≈ marks a conversion by molar mass, not a printed value.

One assay deals with Mycobacterium tuberculosis H37Rv strain. Description: In vitro MIC against M. tuberculosis H37Rv strain (MABA, Alamar Blue).
Conditions: not given
In kind it is cell-based. As to the method: Part I: The in vitro efficacy of anti-Mycobacterium tuberculosis compounds was tested using H37Rv strain.
On the day of the test, the compound was dissolved in pure DMSO (Sigma 276855-2L) to a concentration of 10 mg/mL which was used as the mother liquor of the compound. 30 μL of DMSO was added to wells of column 2 to 11 s of the v-bottom 96-well plates (Axygen-wipp02280). 30 μL of the mother liquor of the compound was added to the well of column 2, after mixing, 30 μL was taken from the well of column 2 and added to the well of column 3, and then pipetted and mixed. The operation was taken to column 10. Column 11 was free of medicine and contained only 30 μL of DMSO. This was the “motherplate” of the compound. From column 2 to 11, the corresponding concentration of the compound was 5, 2.5, 1.25, 0.625, 0.3125, 0.156, 0.078, 0.039, 0.02, 0 mg/mL. […] A flat bottom 96-well plate (Greiner 655090) was used as a “daughterplate”. 98 μL of 7H9 (Sigma M0178) medium was added to the wells of all daughterplates. 2 μL of compound was extracted from the motherboard and added to the corresponding daughter plate. Line A and H, column 1 and 12 of the daughterplate contained only 7H9 medium.
The H37Rv strain in the glycerol cryovial was inoculated into 7H9 medium containing 0.05% Tween 80 and cultured for 4 weeks at 37° C. in a shaker with 200 rpm. The bacterial liquid was washed twice with 7H9 medium containing 0.05% Tween 80 and resuspended in the same medium. The absorbance of the bacteria liquid was adjusted to OD550=0.4-0.5 using the same medium. The bacteria liquid was sub-packed in microcentrifuge tubes and stored at −80° C. Storage time was no more than 1 month. On the day of the test, the packaged bacteria liquid would be […]. The bacteria liquid was diluted 20 times and then diluted 50 times with 7H9 medium, and a total of 1000 times dilution. The bacteria liquid would be used to inoculate on the daughterplate. 100 μL of bacterial liquid was inoculated in each well of the daughterboard, 100 μL 7H9 medium was added to column 12 and without bacteria liquid.
The test daughterplate was placed in an incubator at 37° C. and the humidity was maintained at >80%. A week later, 12.5 μL of 7H9 medium containing 20% Tween 80 and 20 μL of Alamar Blue (Invitrogen DAL1100) were added to the well of a column 1 containing bacteria and the well of a column 12 without bacteria every day, and then continue to incubate for 24 hours and observed. When the added Alamar Blue was reduced to pink in 24 hours by the bacteria liquid in the well of column 1, the 7H9 medium containing 20% Tween 80 and Alamar Blue were added to all wells on the test plate and the fluorescence values were measured after incubation for 24 hours at 37° C.
(The colour change of resazurin is a common sign of viable cells or microbes.)
On to `C[C@]1(CN2Cc3nc(-c4cccc(F)c4)sc3C2)Cn2cc([N+](=O)[O-])nc2O1` [Compound 70, (S)-2-((2-(3-Fluorophenyl)-4H-pyrrolo[3,4-d]thiazol-5(6H)-yl)methyl)-2-methyl-6-nitro-2,3-dihydroimidazo[2,1-b]oxazole], for which the MIC is less than 1 µg/mL. On the same count and under the same terms, the figure for `C[C@]1(CN2CCc3nc(-c4ccc(C(F)(F)F)cc4)ccc3C2)Cn2cc([N+](=O)[O-])nc2O1` [Compound 10, (S)-2-Methyl-6-nitro-2-((2-(4-(trifluoromethyl)phenyl)-7,8-dihydro-1,6-naphthyridin-6(5H)-yl)methyl)-2,3-dihydroimidazo[2,1-b]oxazole] is less than 1 µg/mL.

The subject of another assay is Vero Cell. Briefly: Vero cell cytotoxicity. In kind it is cell-based. To be noted: Chlorocebus sabaeus, Vero cells.
As a reminder, the IC50 is the point on the concentration scale where inhibition reaches its midpoint. Lower therefore signals greater potency in that assay. With `C[C@]1(CN2Cc3nc(-c4cccc(F)c4)sc3C2)Cn2cc([N+](=O)[O-])nc2O1` [Compound 70, (S)-2-((2-(3-Fluorophenyl)-4H-pyrrolo[3,4-d]thiazol-5(6H)-yl)methyl)-2-methyl-6-nitro-2,3-dihydroimidazo[2,1-b]oxazole], the half-maximal inhibitory concentration (IC50) is greater than 32 µg/mL. Still for that read-out and setting: the figure for `C[C@]1(CN2CCc3nc(-c4ccc(C(F)(F)F)cc4)ccc3C2)Cn2cc([N+](=O)[O-])nc2O1` [Compound 10, (S)-2-Methyl-6-nitro-2-((2-(4-(trifluoromethyl)phenyl)-7,8-dihydro-1,6-naphthyridin-6(5H)-yl)methyl)-2,3-dihydroimidazo[2,1-b]oxazole] is greater than 32 µg/mL.

A further assay deals with Mycobacterium bovis BCG strain TMC1019 (ATCC35737). Briefly: microbe, parasite or virus in culture. In kind it is cell-based. To be noted: Mycobacterium tuberculosis variant bovis BCG, 24 h, read-out: M. bovis ATCC35737 (ug/mL).
`C[C@]1(CN2Cc3nc(-c4cc(F)c(F)cc4F)sc3C2)Cn2cc([N+](=O)[O-])nc2O1` [Compound 83, (S)-2-Methyl-6-nitro-2-((2-(2,4,5-trifluorophenyl)-4H-pyrrolo[3,4-d]thiazol-5(6H)-yl)methyl)-2,3-dihydroimidazo[2,1-b]oxazole]: the MIC is less than 1 µg/mL.

`C[C@]1(CN2Cc3nc(-c4cccc(F)c4)sc3C2)Cn2cc([N+](=O)[O-])nc2O1` [Compound 70, (S)-2-((2-(3-Fluorophenyl)-4H-pyrrolo[3,4-d]thiazol-5(6H)-yl)methyl)-2-methyl-6-nitro-2,3-dihydroimidazo[2,1-b]oxazole]: the MIC was less than 1 µg/mL. On the same count and under the same terms, next, `C[C@]1(CN2CCc3nc(-c4ccc(C(F)(F)F)cc4)ccc3C2)Cn2cc([N+](=O)[O-])nc2O1` [Compound 10, (S)-2-Methyl-6-nitro-2-((2-(4-(trifluoromethyl)phenyl)-7,8-dihydro-1,6-naphthyridin-6(5H)-yl)methyl)-2,3-dihydroimidazo[2,1-b]oxazole]: less than 1 µg/mL; `C[C@]1(CN2CCc3nc(-c4ccc(Cl)cc4F)ccc3C2)Cn2cc([N+](=O)[O-])nc2O1` [Compound 23, (S)-2-((2-(4-Chloro-2-fluorophenyl)-7,8-dihydro-1,6-naphthyridin-6(5H)-yl)methyl)-2-methyl-6-nitro-2,3-dihydroimidazo[2,1-b]oxazole]: less than 1 µg/mL; `C[C@]1(CN2Cc3nc(-c4ccc(F)c(F)c4)oc3C2)Cn2cc([N+](=O)[O-])nc2O1` [Compound 90, (S)-2-(3,4-Difluorophenyl)-5-((2-methyl-6-nitro-2,3-dihydroimidazo[2,1-b]oxazol-2-yl)methyl)-5,6-dihydro-4H-pyrrolo[3,4-d]oxazole]: less than 1 µg/mL. Turning to `C[C@]1(CN2CCc3nc(-c4cc(F)ccc4F)ccc3C2)Cn2cc([N+](=O)[O-])nc2O1` [Compound 17, (S)-2-((2-(2,5-Difluorophenyl)-7,8-dihydro-1,6-naphthyridin-6(5H)-yl)methyl)-2-methyl-6-nitro-2,3-dihydroimidazo[2,1-b]oxazole], the MIC is less than 1 µg/mL. Same read-out and setting: the figure for `C[C@]1(CN2CCc3nc(-c4ccsc4Cl)ccc3C2)Cn2cc([N+](=O)[O-])nc2O1` [Compound 53, (S)-2-((2-(2-Chlorothiophen-3-yl)-7,8-dihydro-1,6-naphthyridin-6(5H)-yl)methyl)-2-methyl-6-nitro-2,3-dihydroimidazo[2,1-b]oxazole] is less than 1 µg/mL. With `C[C@]1(CN2CCc3nc(-c4cccc(Cl)c4F)ccc3C2)Cn2cc([N+](=O)[O-])nc2O1` [Compound 19, (S)-2-((2-(3-Chloro-2-fluorophenyl)-7,8-dihydro-1,6-naphthyridin-6(5H)-yl)methyl)-2-methyl-6-nitro-2,3-dihydroimidazo[2,1-b]oxazole], the MIC was less than 1 µg/mL. For `C[C@]1(CN2Cc3nc(-c4cc(F)c(F)cc4F)oc3C2)Cn2cc([N+](=O)[O-])nc2O1` [Compound 94, (S)-5-((2-Methyl-6-nitro-2,3-dihydroimidazo[2,1-b]oxazol-2-yl)methyl)-2-(2,4,5-trifluorophenyl)-5,6-dihydro-4H-pyrrolo[3,4-d]oxazole], the MIC is less than 1 µg/mL.

Turning to `C[C@]1(CN2CCc3nc(C4CCCCC4)ccc3C2)Cn2cc([N+](=O)[O-])nc2O1` [Compound 59, (S)-2-((2-Cyclohexyl-7,8-dihydro-1,6-naphthyridin-6(5H)-yl)methyl)-2-methyl-6-nitro-2,3-dihydroimidazo[2,1-b]oxazole], the MIC was less than 1 µg/mL.

As to `C[C@]1(CN2CCc3nc(-c4cc(F)ccc4Cl)ccc3C2)Cn2cc([N+](=O)[O-])nc2O1` [Compound 22, (S)-2-((2-(2-Chloro-5-fluorophenyl)-7,8-dihydro-1,6-naphthyridin-6(5H)-yl)methyl)-2-methyl-6-nitro-2,3-dihydroimidazo[2,1-b]oxazole], the MIC is less than 1 µg/mL. On the same count and under the same terms, the figure for `C[C@]1(CN2CCc3nc(Nc4ccc(F)cc4)ccc3C2)Cn2cc([N+](=O)[O-])nc2O1` [Compound 33, (S)—N-(4-Fluorophenyl)-6-((2-methyl-6-nitro-2,3-dihydroimidazo[2,1-b]oxazol-2-yl)methyl)-5,6,7,8-tetrahydro-1,6-naphthyridin-2-amine] is less than 1 µg/mL; for `C[C@]1(CN2CCc3nc(N4CCCCC4)ccc3C2)Cn2cc([N+](=O)[O-])nc2O1` [Compound 28, (S)-2-Methyl-6-nitro-2-((2-(piperidin-1-yl)-7,8-dihydro-1,6-naphthyridin-6(5H)-yl)methyl)-2,3-dihydroimidazo[2,1-b]oxazole] it is less than 1 µg/mL; for `C[C@]1(Cn2cc3nc(-c4ccc(F)cc4)sc3c2)Cn2cc([N+](=O)[O-])nc2O1` [Compound 75, (S)-2-((2-(4-Fluorophenyl)-5H-pyrrolo[3,4-d]thiazol-5-yl)methyl)-2-methyl-6-nitro-2,3-dihydroimidazo[2,1-b]oxazole] it is 1 to 32 µg/mL (≈ 2.5 to 80.1 µM).

On to `C[C@]1(CN2CCc3nc(-c4ccc(F)c(Cl)c4)ccc3C2)Cn2cc([N+](=O)[O-])nc2O1` [Compound 18, (S)-2-((2-(3-Chloro-4-fluorophenyl)-7,8-dihydro-1,6-naphthyridin-6(5H)-yl)methyl)-2-methyl-6-nitro-2,3-dihydroimidazo[2,1-b]oxazole], for which the MIC is less than 1 µg/mL.

As to `C[C@]1(CN2CCc3nc(-c4cc(F)cc(F)c4)ncc3C2)Cn2cc([N+](=O)[O-])nc2O1` [Compound 48, (S)-2-((2-(3,5-Difluorophenyl)-7,8-dihydropyrido[4,3-d]pyrimidin-6(5H)-yl)methyl)-2-methyl-6-nitro-2,3-dihydroimidazo[2,1-b]oxazole], the MIC was less than 1 µg/mL.

As to `C[C@]1(CN2CCc3nc(-c4cc(F)cc(Cl)c4)ccc3C2)Cn2cc([N+](=O)[O-])nc2O1` [Compound 21, (S)-2-((2-(3-Chloro-5-fluorophenyl)-7,8-dihydro-1,6-naphthyridin-6(5H)-yl)methyl)-2-methyl-6-nitro-2,3-dihydroimidazo[2,1-b]oxazole], the MIC is less than 1 µg/mL. On to `C[C@]1(CN2CCc3nc(-c4cccc(F)c4F)ccc3C2)Cn2cc([N+](=O)[O-])nc2O1` [Compound 16, (S)-2-((2-(2,3-Difluorophenyl)-7,8-dihydro-1,6-naphthyridin-6(5H)-yl)methyl)-2-methyl-6-nitro-2,3-dihydroimidazo[2,1-b]oxazole], for which the MIC was less than 1 µg/mL. On the same count and under the same terms, the figure for `C[C@]1(CN2Cc3nc(-c4ccc(OC(F)(F)F)cc4)sc3C2)Cn2cc([N+](=O)[O-])nc2O1` [Compound 73, (S)-2-Methyl-6-nitro-2-((2-(4-(trifluoromethoxy)phenyl)-4H-pyrrolo[3,4-d]thiazol-5(6H)-yl)methyl)-2,3-dihydroimidazo[2,1-b]oxazole] is 1 to 32 µg/mL (≈ 2.14 to 68.5 µM); for `C[C@]1(CN2CCc3oc(-c4ccc(F)cc4)cc3C2)Cn2cc([N+](=O)[O-])nc2O1` [Compound 64, (S)-2-(4-Fluorophenyl)-5-((2-methyl-6-nitro-2,3-dihydroimidazo[2,1-b]oxazol-2-yl)methyl)-4,5,6,7-tetrahydrofuro[3,2-c]pyridine] it is less than 1 µg/mL.

With `C[C@]1(CN2CCc3nc(C4CC4)ccc3C2)Cn2cc([N+](=O)[O-])nc2O1` [Compound 26, (S)-2-((2-Cyclopropyl-7,8-dihydro-1,6-naphthyridin-6(5H)-yl)methyl)-2-methyl-6-nitro-2,3-dihydroimidazo[2,1-b]oxazole], the MIC is less than 1 µg/mL.

As to `C[C@]1(CN2CCc3nc(-c4cc(Cl)ccc4F)ccc3C2)Cn2cc([N+](=O)[O-])nc2O1` [Compound 15, (S)-2-((2-(5-Chloro-2-fluorophenyl)-7,8-dihydro-1,6-naphthyridin-6(5H)-yl)methyl)-2-methyl-6-nitro-2,3-dihydroimidazo[2,1-b]oxazole], the MIC was less than 1 µg/mL. Same read-out and setting: next, `C[C@]1(CN2CCc3nc(-c4ccc(OC(F)(F)F)c(F)c4)ccc3C2)Cn2cc([N+](=O)[O-])nc2O1` [Compound 11, (S)-2-((2-(3-Fluoro-4-(trifluoromethoxy)phenyl)-7,8-dihydro-1,6-naphthyridin-6(5H)-yl)methyl)-2-methyl-6-nitro-2,3-dihydroimidazo[2,1-b]oxazole]: 1 to 32 µg/mL (≈ 2.03 to 64.9 µM).

These data come from US10227362B2 (priority 2015, dated 2019).
